Measured values from patent US20160375006A1, “USES OF PARALOG-SELECTIVE INHIBITORS OF GSK3 KINASES” (priority 2012, published 2016).

How the values were obtained:
MGC42105 = MGC42105 (Homo sapiens, UniProt Q8IY84)
Experimental: (§1) This was completed utilizing one of two assays depending on the kinase being examined.
(§2) A solution of IMAP binding reagent (IMAP Screening Express kit; Molecular Devices) (60 μL) was added to each well and incubated for 30 minutes.
(§3) A solution of termination buffer (QuickScout Screening assist MSA; Carna Biosciences) (60 μL) was added to each well. The entire reaction mixture was then applied to a LabChip3000 system (Caliper Life Science) and the product and substrate peptide peaks were separated and quantified.
(§4) The assay utilized was identical to that of the single point inhibitory activity determination (MSA) but run in dose response. […] A solution of termination buffer (QuickScout Screening assist MSA; Carna Biosciences) (60 μL) was added to each well. The entire reaction mixture was then applied to a LabChip3000 system (Caliper Life Science) and the product and substrate peptide peaks were separated and quantified.

FGFR3 = FGFR3 (Homo sapiens, UniProt P22607)
Experimental: as §2, §3, §4

PDHK2 = PDHK2 (Homo sapiens, UniProt Q15119)
Experimental: as §1, §2, §3, §4

PLK3 = PLK3 (Homo sapiens, UniProt Q9H4B4)
Experimental: as §1, §2, §3

TSSK1 = TSSK1 (Homo sapiens, UniProt Q9BXA7)
Experimental: as §1, §2, §3, §4

FRK = FRK (Homo sapiens, UniProt P42685)
Experimental: as §1, §2, §3, §4

IRR = IRR (Homo sapiens, UniProt P14616)
Experimental: as §1, §2, §3, §4

TSSK3 = TSSK3 (Homo sapiens, UniProt Q96PN8)
Experimental: as §1, §2, §3, §4

FLT4 = FLT4 (Homo sapiens, UniProt P35916)
Experimental: as §1, §2, §3, §4

MNK2 = MNK2 (Homo sapiens, UniProt Q9HBH9)
Chain of MNK2 (Q9HBH9 whole entry): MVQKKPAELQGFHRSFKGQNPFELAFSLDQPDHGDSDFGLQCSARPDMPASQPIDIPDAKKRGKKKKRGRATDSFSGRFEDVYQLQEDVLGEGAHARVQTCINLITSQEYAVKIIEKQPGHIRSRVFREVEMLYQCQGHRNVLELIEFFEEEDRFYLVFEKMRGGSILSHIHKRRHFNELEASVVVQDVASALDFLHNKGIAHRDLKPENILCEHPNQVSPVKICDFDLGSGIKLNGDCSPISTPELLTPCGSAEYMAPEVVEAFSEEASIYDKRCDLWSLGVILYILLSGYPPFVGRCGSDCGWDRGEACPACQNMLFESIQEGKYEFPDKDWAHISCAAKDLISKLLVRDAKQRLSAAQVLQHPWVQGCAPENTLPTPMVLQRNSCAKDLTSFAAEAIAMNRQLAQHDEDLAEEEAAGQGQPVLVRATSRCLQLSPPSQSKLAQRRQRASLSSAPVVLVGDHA
Experimental: as §1, §2, §3

TYK2 = TYK2 (Homo sapiens, UniProt P29597)
Chain of TYK2 (P29597 whole entry): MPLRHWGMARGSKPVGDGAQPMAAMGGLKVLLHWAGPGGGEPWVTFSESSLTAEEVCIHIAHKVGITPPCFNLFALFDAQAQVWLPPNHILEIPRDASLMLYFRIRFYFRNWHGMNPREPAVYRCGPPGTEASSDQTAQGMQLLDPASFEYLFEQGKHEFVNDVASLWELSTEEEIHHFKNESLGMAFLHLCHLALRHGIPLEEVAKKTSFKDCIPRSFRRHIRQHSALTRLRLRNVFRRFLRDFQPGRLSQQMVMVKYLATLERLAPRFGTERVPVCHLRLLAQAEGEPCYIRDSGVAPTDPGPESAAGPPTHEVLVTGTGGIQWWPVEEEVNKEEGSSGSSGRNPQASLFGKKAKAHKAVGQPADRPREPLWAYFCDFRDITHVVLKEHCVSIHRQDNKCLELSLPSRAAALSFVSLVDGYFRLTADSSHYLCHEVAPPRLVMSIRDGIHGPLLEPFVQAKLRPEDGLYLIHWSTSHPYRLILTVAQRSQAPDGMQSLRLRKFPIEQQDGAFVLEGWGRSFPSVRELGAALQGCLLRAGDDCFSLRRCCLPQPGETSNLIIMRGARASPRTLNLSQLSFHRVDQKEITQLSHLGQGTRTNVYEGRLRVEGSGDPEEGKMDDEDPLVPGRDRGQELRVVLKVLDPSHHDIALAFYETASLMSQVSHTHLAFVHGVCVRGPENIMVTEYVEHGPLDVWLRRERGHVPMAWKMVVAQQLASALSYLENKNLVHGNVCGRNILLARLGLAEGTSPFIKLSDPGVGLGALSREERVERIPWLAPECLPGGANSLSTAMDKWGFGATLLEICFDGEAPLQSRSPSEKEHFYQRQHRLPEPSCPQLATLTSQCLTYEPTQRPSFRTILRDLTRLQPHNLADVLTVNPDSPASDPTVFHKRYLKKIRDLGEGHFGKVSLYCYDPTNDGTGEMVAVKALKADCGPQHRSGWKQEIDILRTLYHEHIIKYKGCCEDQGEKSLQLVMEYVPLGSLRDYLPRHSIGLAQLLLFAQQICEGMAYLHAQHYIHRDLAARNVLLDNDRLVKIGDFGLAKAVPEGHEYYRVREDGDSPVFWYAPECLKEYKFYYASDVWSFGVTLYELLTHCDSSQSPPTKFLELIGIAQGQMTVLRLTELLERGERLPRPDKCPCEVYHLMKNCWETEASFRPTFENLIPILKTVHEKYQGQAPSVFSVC
Experimental: as §2, §3, §4

MAPKAPK3 = MAPKAPK3 (Homo sapiens, UniProt Q16644)
Chain of MAPKAPK3 (Q16644 whole entry): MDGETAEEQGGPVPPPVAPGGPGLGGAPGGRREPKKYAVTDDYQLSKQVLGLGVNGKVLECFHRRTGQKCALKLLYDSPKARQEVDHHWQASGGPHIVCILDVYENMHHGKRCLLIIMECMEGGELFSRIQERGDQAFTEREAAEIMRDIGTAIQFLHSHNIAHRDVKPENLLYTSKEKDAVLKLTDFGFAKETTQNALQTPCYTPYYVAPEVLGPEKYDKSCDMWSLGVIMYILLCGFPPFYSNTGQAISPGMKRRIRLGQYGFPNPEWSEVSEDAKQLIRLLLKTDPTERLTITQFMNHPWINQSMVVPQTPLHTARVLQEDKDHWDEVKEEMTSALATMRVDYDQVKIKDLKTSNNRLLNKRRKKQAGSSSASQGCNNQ
Experimental: as §1, §2, §3, §4

LTK = LTK (Homo sapiens, UniProt P29376)
Chain of LTK (P29376 17-864): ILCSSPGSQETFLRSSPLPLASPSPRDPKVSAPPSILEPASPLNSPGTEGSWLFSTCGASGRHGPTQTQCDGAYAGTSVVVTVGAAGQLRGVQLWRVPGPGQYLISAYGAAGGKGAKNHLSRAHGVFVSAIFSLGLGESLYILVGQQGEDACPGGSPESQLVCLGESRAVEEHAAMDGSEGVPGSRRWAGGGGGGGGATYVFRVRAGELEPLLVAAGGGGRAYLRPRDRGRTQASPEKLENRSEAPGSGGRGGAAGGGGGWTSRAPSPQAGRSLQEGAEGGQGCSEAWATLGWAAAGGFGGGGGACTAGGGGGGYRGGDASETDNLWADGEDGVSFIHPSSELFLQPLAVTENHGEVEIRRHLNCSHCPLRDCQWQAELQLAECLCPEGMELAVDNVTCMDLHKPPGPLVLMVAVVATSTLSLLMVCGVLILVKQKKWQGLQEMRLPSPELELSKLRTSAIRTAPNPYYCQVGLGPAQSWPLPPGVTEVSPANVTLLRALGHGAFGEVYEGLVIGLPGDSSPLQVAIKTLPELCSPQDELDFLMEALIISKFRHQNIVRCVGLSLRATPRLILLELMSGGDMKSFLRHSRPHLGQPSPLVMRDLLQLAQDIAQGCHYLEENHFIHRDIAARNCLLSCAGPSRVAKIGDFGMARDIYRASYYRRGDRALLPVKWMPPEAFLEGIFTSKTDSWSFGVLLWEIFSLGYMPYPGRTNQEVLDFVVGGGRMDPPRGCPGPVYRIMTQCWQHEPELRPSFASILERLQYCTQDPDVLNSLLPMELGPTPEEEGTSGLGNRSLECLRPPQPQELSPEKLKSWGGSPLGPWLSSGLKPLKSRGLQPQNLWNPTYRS
Experimental: as §1, §2, §3, §4

FLT1 = FLT1 (Homo sapiens, UniProt P17948)
Experimental: as §1, §2, §3, §4

KIT(V654A) = KIT(V654A) (Homo sapiens, UniProt P10721, V654A)
Experimental: as §1, §2, §3, §4

FGFR4(V550E) = FGFR4(V550E) (Homo sapiens, UniProt P22455, V550E)
Experimental: as §1, §2, §3, §4

PDHK4 = PDHK4 (Homo sapiens, UniProt Q16654)
Experimental: as §1, §2, §3, §4

[1] = test system: protein synthesis in hippocampal slices; settings: Fmr1 knockout mice hippocampal slices, 10 μM
Experimental: 500 um hippocampal slices are recovered in ACSF for 3 hours, followed by incubation in GSK3ai or vehicle for an hour, with Actinomycin D (to block transcription) for the last half hour of drug incubation. Slices are then transferred to new chambers containing ACSF with drug/vehicle and S35 (a radiolabeled Met/Cys) for 30 minutes to measure protein synthesis. Slices are then processed and read in a scintillation counter to determine the rate of protein synthesis.

PLK1 = target: T1, PLK1 (Homo sapiens, UniProt P53350); assay: Carna kinase panel; type: biochemical
T1 construct: purchased Carna Biosciences
T1 sequence (P53350 whole entry): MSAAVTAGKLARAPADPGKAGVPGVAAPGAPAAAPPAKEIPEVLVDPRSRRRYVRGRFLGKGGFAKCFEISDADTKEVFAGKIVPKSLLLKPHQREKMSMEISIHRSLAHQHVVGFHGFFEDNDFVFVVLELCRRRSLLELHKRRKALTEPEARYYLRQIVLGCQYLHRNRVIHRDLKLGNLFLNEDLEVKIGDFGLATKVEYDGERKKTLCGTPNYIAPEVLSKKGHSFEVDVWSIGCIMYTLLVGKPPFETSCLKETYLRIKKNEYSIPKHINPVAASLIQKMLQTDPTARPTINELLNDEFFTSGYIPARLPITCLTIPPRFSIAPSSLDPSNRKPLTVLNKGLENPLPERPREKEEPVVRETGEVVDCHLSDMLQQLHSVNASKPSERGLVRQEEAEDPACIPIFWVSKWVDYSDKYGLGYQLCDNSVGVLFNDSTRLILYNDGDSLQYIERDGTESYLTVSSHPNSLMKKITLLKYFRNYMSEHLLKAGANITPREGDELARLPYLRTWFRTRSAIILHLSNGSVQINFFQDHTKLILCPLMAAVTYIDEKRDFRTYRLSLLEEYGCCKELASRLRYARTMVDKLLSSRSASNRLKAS
Experimental: as §1, §2, §3

EGFR(d746-750) = EGFR(d746-750) (Homo sapiens, UniProt P00533, DEL746-750)
Experimental: as §1, §2, §3

FGFR4(N535K) = FGFR4(N535K) (Homo sapiens, UniProt P22455, N535K)
Experimental: as §1, §2, §3

CK1γ1 = CK1γ1 (Homo sapiens, UniProt Q9HCP0)
Chain of CK1γ1 (Q9HCP0 whole entry): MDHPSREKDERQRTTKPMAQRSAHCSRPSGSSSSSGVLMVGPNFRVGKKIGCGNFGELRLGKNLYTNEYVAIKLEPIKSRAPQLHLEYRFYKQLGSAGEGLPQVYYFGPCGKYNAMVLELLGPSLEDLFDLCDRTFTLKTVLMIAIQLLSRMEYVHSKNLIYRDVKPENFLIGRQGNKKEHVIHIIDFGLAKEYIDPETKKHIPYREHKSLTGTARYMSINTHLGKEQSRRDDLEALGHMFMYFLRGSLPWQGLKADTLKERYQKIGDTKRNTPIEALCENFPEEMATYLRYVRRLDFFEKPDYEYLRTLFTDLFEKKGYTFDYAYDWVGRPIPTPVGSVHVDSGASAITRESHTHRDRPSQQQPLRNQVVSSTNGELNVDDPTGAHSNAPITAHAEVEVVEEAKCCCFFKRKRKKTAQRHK
Experimental: as §1, §2, §3, §4

[2] = test system: audiogenic seizure phenotype; settings: Fmr1 KO mice, single dose 30 mg/kg i.p.
PKACα = PKACα (Homo sapiens, UniProt P17612)
Experimental: as §1, §2, §3, §4

[3] = test system: pGSK3α/β, β-catenin, CRMP2 in SH-SY5Y cells; settings: SH-SY5Y cells, 1, 5, 10 and 30 μM, 24 hours
Experimental: The samples were incubated and gently rocked for 1 h before centrifuged at 12 000 g for 10 min. The supernatant total cell lysate was subject to subsequent western blot analysis. […] Membranes were incubated overnight with primary antibodies in a solution of Tris-buffered saline containing Tween 20 (TBST, Sigma) and 5% dry milk. Incubation of secondary antibodies was performed for 1 h at room temperature in a solution of 5% dry milk in TBST.

KIT(D816E) = KIT(D816E) (Homo sapiens, UniProt P10721, D816E)
GSK3α = GSK3α (Homo sapiens, UniProt P49840)
Chain of GSK3α (P49840 whole entry): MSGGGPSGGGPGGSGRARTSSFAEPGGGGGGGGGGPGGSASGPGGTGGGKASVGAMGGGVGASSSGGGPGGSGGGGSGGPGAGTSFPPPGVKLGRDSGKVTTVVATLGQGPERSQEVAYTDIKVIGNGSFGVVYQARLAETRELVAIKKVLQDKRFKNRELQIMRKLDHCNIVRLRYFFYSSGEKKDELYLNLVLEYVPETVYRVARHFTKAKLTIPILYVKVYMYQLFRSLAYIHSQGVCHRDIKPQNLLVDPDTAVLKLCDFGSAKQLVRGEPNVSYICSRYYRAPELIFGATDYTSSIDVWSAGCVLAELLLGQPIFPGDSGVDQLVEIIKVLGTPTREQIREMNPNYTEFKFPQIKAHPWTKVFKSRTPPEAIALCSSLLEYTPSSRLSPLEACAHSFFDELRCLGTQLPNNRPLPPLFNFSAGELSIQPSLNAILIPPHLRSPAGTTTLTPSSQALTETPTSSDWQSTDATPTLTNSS
Experimental: as §1, §2, §3, §4

MET(M1250T) = MET(M1250T) (Homo sapiens, UniProt P08581, M1250T)
MET(D1228H) = MET(D1228H) (Homo sapiens, UniProt P08581, D1228H)
LKB1 = LKB1 (Homo sapiens, UniProt Q15831)
PLK4 = PLK4 (Homo sapiens, UniProt O00444)
LIMK1 = target: T2, LIMK1 (Homo sapiens, UniProt P53667); assay: Carna kinase panel; type: biochemical
T2 construct: purchased Carna Biosciences
Experimental: as §1, §2, §3

BMPR1A = BMPR1A (Homo sapiens, UniProt P36894)
WEE1 = WEE1 (Homo sapiens, UniProt P30291)
TTK = TTK (Homo sapiens, UniProt P33981)

Chain of PLK3 (Q9H4B4 whole entry): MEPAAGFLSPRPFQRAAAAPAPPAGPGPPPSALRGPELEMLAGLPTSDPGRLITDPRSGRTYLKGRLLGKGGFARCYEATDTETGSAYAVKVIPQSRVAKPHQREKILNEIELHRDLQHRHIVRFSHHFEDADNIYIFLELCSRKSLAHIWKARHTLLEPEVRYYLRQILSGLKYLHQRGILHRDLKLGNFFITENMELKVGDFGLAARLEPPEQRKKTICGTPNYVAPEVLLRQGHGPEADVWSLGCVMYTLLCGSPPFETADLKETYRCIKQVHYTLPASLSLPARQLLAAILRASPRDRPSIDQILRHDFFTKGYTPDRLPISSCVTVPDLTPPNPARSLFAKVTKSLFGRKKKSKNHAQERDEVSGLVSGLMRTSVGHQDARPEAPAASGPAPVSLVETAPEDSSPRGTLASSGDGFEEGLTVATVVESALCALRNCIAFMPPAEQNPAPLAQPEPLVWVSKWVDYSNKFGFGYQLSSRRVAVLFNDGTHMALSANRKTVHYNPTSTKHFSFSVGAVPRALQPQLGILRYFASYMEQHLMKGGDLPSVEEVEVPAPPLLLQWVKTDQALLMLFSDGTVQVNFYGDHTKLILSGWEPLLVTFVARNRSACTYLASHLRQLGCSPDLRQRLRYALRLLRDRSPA

Question: How did the “% Inhibition at 10 μM” value (MGC42105) turn out when `CC[C@@]1(c2ccccc2)C2=C(CC(C)(C)CC2=O)Nc2n[nH]cc21` [BRD0705] was run?
Answer: −9.9%

Question: What about the “% Inhibition at 10 μM” value (FGFR3) of the same molecule?
Answer: −2.8%

Question: What about the “% Inhibition at 10 μM” value (PDHK2) of the same molecule?
Answer: −0.5%

Question: And the “% Inhibition at 10 μM” value (PLK3)?
Answer: −12.5%

Question: And the “% Inhibition at 10 μM” value (TSSK1)?
Answer: −8.5%

Question: And the “% Inhibition at 10 μM” value (FRK)?
Answer: 0.9%

Question: And the “% Inhibition at 10 μM” value (IRR)?
Answer: 4.0%

Question: And the “% Inhibition at 10 μM” value (TSSK3)?
Answer: 3.5%

Question: And the “% Inhibition at 10 μM” value (FLT4)?
Answer: −7.9%

Question: What about the “% Inhibition at 10 μM” value (MNK2) of the same molecule?
Answer: −5.9%

Question: And the “% Inhibition at 10 μM” value (TYK2)?
Answer: −2.2%

Question: And the “% Inhibition at 10 μM” value (MAPKAPK3)?
Answer: −8.3%

Question: And the “% Inhibition at 10 μM” value (LTK)?
Answer: −3.6%

Question: And the “% Inhibition at 10 μM” value (FLT1)?
Answer: −2.6%

Question: What about the “% Inhibition at 10 μM” value (KIT(V654A)) of the same molecule?
Answer: −1.0%

Question: And the “% Inhibition at 10 μM” value (FGFR4(V550E))?
Answer: −0.5%

Question: And the “% Inhibition at 10 μM” value (PDHK4)?
Answer: 11.0%

Question: What about the Excess protein synthesis [1] of the same molecule?
Answer: correction of excess protein synthesis

Question: And the “% Inhibition at 10 μM” value (PLK1)?
Answer: −12.3%

Question: And the “% Inhibition at 10 μM” value (EGFR(d746-750))?
Answer: −12.0%

Question: And the “% Inhibition at 10 μM” value (FGFR4(N535K))?
Answer: 22.1%

Question: What about the “% Inhibition at 10 μM” value (CK1γ1) of the same molecule?
Answer: −3.4%

Question: And the Audiogenic seizure phenotype [2]?
Answer: reduces audiogenic seizures

Question: What about the “% Inhibition at 10 μM” value (PKACα) of the same molecule?
Answer: 3.4%

Question: And the “pGSK3αY279 level (Western blot)” value [3]?
Answer: dose dependent decrease

Question: And the “pGSK3βY216 and β-catenin levels (Western blot)” value [3]?
Answer: without effecting

Question: `CC(C)(C)Cc1[nH]nc2c1[C@](C)(c1ccccc1)C1=C(CC(C)(C)CC1=O)N2` [BRD3731] was tested. Which “% Inhibition 10 μM” value (KIT(D816E)) did it give?
Answer: 3.9%

Question: What about the “% Inhibition 10 μM” value (MGC42105; 10 μM) of the same molecule?
Answer: −2.4%

Question: What about the “% Inhibition 10 μM” value (FGFR3; 10 μM) of the same molecule?
Answer: −0.7%

Question: And the “% Inhibition 10 μM” value (GSK3α)?
Answer: 96.8%

Question: And the “Fold Selectivity” value (GSK3α)?
Answer: 7.8 fold

Question: And the IC50 (GSK3α)?
Answer: 211 nM

Question: And the “% Inhibition 10 μM” value (PDHK2; 10 μM)?
Answer: 12.7%

Question: What about the “% Inhibition 10 μM” value (PLK3; 10 μM) of the same molecule?
Answer: 4.0%

Question: And the “% Inhibition 10 μM” value (TSSK1; 10 μM)?
Answer: −0.8%

Question: And the “% Inhibition 10 μM” value (FRK; 10 μM)?
Answer: 3.2%

Question: What about the “% Inhibition 10 μM” value (IRR; 10 μM) of the same molecule?
Answer: 6.2%

Question: What about the “% Inhibition 10 μM” value (MET(M1250T)) of the same molecule?
Answer: 0.8%

Question: And the “% Inhibition 10 μM” value (TSSK3; 10 μM)?
Answer: 33.6%

Question: What about the “% Inhibition 10 μM” value (FLT4; 10 μM) of the same molecule?
Answer: 16.8%

Question: What about the “% Inhibition 10 μM” value (MNK2; 10 μM) of the same molecule?
Answer: −5.6%

Question: And the “% Inhibition 10 μM” value (MET(D1228H))?
Answer: 0.0%

Question: What about the “% Inhibition 10 μM” value (TYK2; 10 μM) of the same molecule?
Answer: 4.6%

Question: And the “% Inhibition 10 μM” value (MAPKAPK3; 10 μM)?
Answer: 6.0%

Question: And the “% Inhibition 10 μM” value (LTK; 10 μM)?
Answer: −3.5%

Question: And the “% Inhibition 10 μM” value (FLT1; 10 μM)?
Answer: 3.2%

Question: What about the “% Inhibition 10 μM” value (KIT(V654A); 10 μM) of the same molecule?
Answer: −1.9%

Question: And the “% Inhibition 10 μM” value (FGFR4(V550E); 10 μM)?
Answer: 0.1%

Question: What about the “% Inhibition 10 μM” value (LKB1) of the same molecule?
Answer: 3.4%

Question: What about the “% Inhibition 10 μM” value (PLK4) of the same molecule?
Answer: 14.3%

Question: And the “% Inhibition 10 μM” value (PDHK4; 10 μM)?
Answer: 24.2%

Question: And the “% Inhibition 10 μM” value (PLK1; 10 μM)?
Answer: −0.7%

Question: What about the “% Inhibition 10 μM” value (EGFR(d746-750); 10 μM) of the same molecule?
Answer: 2.5%

Question: What about the “% Inhibition 10 μM” value (LIMK1) of the same molecule?
Answer: 7.5%

Question: And the “% Inhibition 10 μM” value (CK1γ1; 10 μM)?
Answer: 1.2%

Question: What about the “% Inhibition 10 μM” value (BMPR1A) of the same molecule?
Answer: −4.4%

Question: And the “% Inhibition 10 μM” value (PKACα; 10 μM)?
Answer: 17.1%

Question: What about the “% Inhibition 10 μM” value (WEE1) of the same molecule?
Answer: −9.1%

Question: What about the “% Inhibition 10 μM” value (TTK) of the same molecule?
Answer: 5.4%
